Laboratory results taken from article PMC11026381, “Late-stage meta-C–H alkylation of pharmaceuticals to modulate biological properties and expedite molecular optimisation in a single step” (Nature Communications, 2024).
Converted amounts (≈) assume the structure as drawn.

Key:
[1] = Thermodynamic solubility, shake-flask approach, phosphate buffer pH 7.4; assay type: physicochemical; details: pH 7.4, phosphate buffer 0.1 M, 20 °C, n = 1
Text: (§1) 5. Pharmaceutically relevant properties modulation
(§2) Product analogues 5e, 6a-6k obtained after late-stage meta-C–H alkylation of the pharmaceutically active compound Emapunil (4e) were subjected to a range of fundamental in vitro drug discovery assays. To prevent hydrolysis of ester groups present on these analogues during biological testing (in order to compare the clearance and metabolic stability between these drug derivatives), their corresponding free acids 5e’, 6a’-6k’ were synthesised (see page S54) and subjected to similar assays.
The experimental methods used for these physicochemical & drug metabolism and pharmacokinetics (DMPK) assays are described below 11.
This method measures the thermodynamic solubility of compounds based on a shake-flask approach12.
The nature of the solid state was unknown in these experiments and may be subject to variability. The compounds were dissolved in DMSO (30 μL, 10 mM) in glass vials, and were dried using a Genevac vacuum evaporator (Genevac Ltd, Ipswich, UK). When the samples were dry, 300 μL of phosphate buffer (0.1 M, pH 7.4) was added to the glass vials. The vials were put on an Edmund Bühler shaker (Edmund Bühler GmbH, Hechingen, Germany) at 20 °C for 18 hours. Samples were filtered through a Whatman GF/B 96-well filter and 20 μL of filtrated samples were transferred to separate wells in a plate containing 180 μL MeCN/H2O (1:1). Standards were prepared by diluting the 10 mM compound solutions with MeCN/H2O (1:1) to 200 μM. Three further dilution steps of 10 times were applied to both the samples and standards and they were all analy sed by LC-MS/MS (Waters Xevo-TQS). Solubility was determined using the integrated peak areas of the samples in the linear MS response range. […]

[2] = Octanol/water partitioning (LogD), shake-flask method; assay type: physicochemical; details: n = 1
Text: as §1, §2
(§3) The experimental methods used for these physicochemical & drug metabolism and pharmacokinetics (DMPK) assays are described below 11. […]
Octanol/water partitioning (LogD)
Partitioning of compounds between 1 -octanol and phosphate buffer (0.1 M, pH 7.4) at 20 °C were determined using a modified version of the shake -flask method described by Leo et al13. Compounds were dissolved in a 96 -well plate, in 400 μL octanol, and 400 μL of buffer was added to each well. The plate was vigorously stirred for 5 min and then put on an Edmund Bühler shaker (Edmund Bühler GmbH, Hechingen, Germany) at 20 °C for 18 hours. Aliquots of 5 μL octanol were transferred and diluted with 495 μL MeCN/H2O (1:1) and, to avoid contamination of the buffer, the rest of the octanol was removed before 150 μL of buffer samples were transferred. Octanol and buffer samples were diluted with MeCN/H2O (1:1) in four steps of 10 times to yield octanol samples diluted 10 2 to 106 times and buffer samples diluted 1 to 104 times. LC-MS/MS (Waters Xevo-TQS) was used for analysis, and distribution coefficient at pH 7.4 (LogD7.4) was calculated from the integrated peak areas of the samples in the linear MS response range. LogD7.4 results were reported as median values. […]

[3] = Fraction unbound in human plasma (Prot. Bind.), equilibrium dialysis; assay type: in vitro ADME; details: 5 μM, dialysis at 37 °C for 18 hours
Text: as §1, §2, §3
Fraction unbound in human plasma (Prot. Bind.)
Equilibrium dialysis of compounds was used to assess the fraction unbound in human plasma. Stock solutions of compounds dissolved in DMSO were pooled into cassettes with up to 10 compounds in each cassette with a concentration of 1 mM. The pooled stock solutions were diluted in plasma to a compound concentration of 5 μM. Warfarin, propranolol and metoprolol were used as reference compounds in each run. The equilibrium dialysis device (RED, Thermo Fischer Scientific Inc., Rockford, USA) was used for dialysis against phosphate buffer (pH 7.4) at 37 °C for 18 hours. Calibration curves ranging from 0.001 to 7 μM were made using aliquots of the 7 μM spiked plasma pools that were transferred to a new plate followed by serial dilutions with blank plasma. Calibration curve samples and dialysis samples were precipitated with MeCN and after centrifugation, supernatants were removed and analysed using LC-MS/MS (Waters Xevo-TQS). Fraction unbound in the incubation was calculated as the concentration in the media buffer sample divided by the concentration in the plasma sample. The fraction unbound was reported as the median value.

[4] = Metabolic stability in human liver microsomes (CLint HLM); assay type: in vitro ADME; details: 1 mg/mL microsomal protein, 1 mM NADPH, 37 °C; for microsomal CLint at 1 μM: both sexes, human, liver microsomes, pH 7.4, measured on the labelled compound itself, n = 1, read-out: CLint HLM (intrinsic clearance in human liver microsomes); for CLint HLM (intrinsic clearance in human liver microsomes): measured on the labelled compound itself, 1 μM, n = 1
Experimental: Metabolic stability in human liver microsomes (CLint HLM)
Human liver microsomes were defrosted on ice and diluted to 1 mg/mL of microsomal protein in phosphate buffer (0.1 M, pH 7.4). Compounds at 1 μM were incubated with the liver microsome suspensions and 1 mM NADPH at 37 °C in a 96-well plate. At 0.5, 5, 10, 15, 20 and 30 min, aliquots of 30 μL were transferred to a 96-well plate containing 120 μL MeCN. This plate was centrifuged for 20 min and supernatant was removed and diluted with H2O (1:1) before analysis by LC-MS/MS (Waters Xevo-TQS). Peak areas were determined from extracted ion chromatograms, and the in vitro intrinsic clearance (in vitro CLint, in μL/min/mg microsomal protein) of parent compound was calculated from the slope in the regression analysis of the natural logarithm of parent concentration vs. time curve.
Human Liver Microsomes (InVitroCYPTM 150-Donor, Mixed Gender) were harvested and supplied by BioIVT (Product No. X008070, Lot No. QQY). […]
(§4) The modulation of pharmaceutically relevant properties on meta-C–H alkylation is shown below in Supplementary Fig. 68, with a selection of physicochemical and DMPK data including solubility , LogD, human plasma protein binding (Prot. Bind.) and intrinsic clearance (CLint) in human liver microsomes (HLM) or rat hepatocytes (Rat Hep.) .

[5] = Metabolic stability in male Han Wistar rat hepatocytes (CLint Rat Hep.); assay type: in vitro ADME; details: measured on the labelled compound itself, 1 μM, 10^6 viable cells/mL, 37 °C, n = 1
Experimental: Metabolic stability in male Han Wistar rat hepatocytes (CLint Rat Hep.) Hepatocyte metabolic stability was determined in accordance with the method described by Jacobson et al14. Cryopreserved hepatocytes at a concentration of 10 6 viable cells/mL were used. After thawing, hepatocytes were incubated for 10 min to warm to 37 °C, and compounds dissolved in MeCN were […]
incubation system was mixed and 20 μL aliquots were transferred at each time point to wells in a separate plate filled with 80 μL MeCN to stop the reaction. The quenching plate was then vortexed followed by centrifugation, and supernatants were analysed by LC-MS/MS (Waters Xevo-TQS). Peak areas were determined from extracted ion chromatograms, and the in vitro intrinsic clearance (in vitro CLint, in μL/min/10^6 cells) of parent compound was calculated from the slope in the regression analysis of the natural logarithm of parent concentration vs. time curve. Rat Hepatocytes (Cryosuspension, Male Wistar Hannover ) were harvested and s upplied by BioIVT (Product No. M00065, Lot No. DVO).
as §4

[6] = aqueous buffer, thermodynamic from solid
[7] = 1-octanol / phosphate buffer pH 7.4, 20 °C
[8] = 1-octanol/phosphate buffer, pH 7.4, 1-octanol / phosphate buffer pH 7.4, 20 °C

Row | SMILES | solubility at 18 h [1, 6] [µM] | solubility at 18 h [1] [µM] | LogD (octanol) [2, 7] | logD [2, 8] | Prot. Bind. (% free), human plasma protein binding ([3]; n = 1) [% free] | microsomal CLint at 1 μM [4] [µL/min/mg] | CLint HLM (intrinsic clearance in human liver microsomes) [4] [µL/min/mg] | CLint Rat Hep. (intrinsic clearance in rat hepatocytes) [5] [μL/min/10^6] | also measured
1 | CCOC(=O)C(C)(C)c1cccc(-c2ncc3c(n2)n(CC(=O)N(CC)Cc2ccccc2)c(=O)n3C)c1 [6b] | 8 (≈ 4.12 µg/mL) | > 1000 | 0.5 | 4.2 | 0.8 | > 300 | 11.1 | > 300 | Prot. Bind. (% free), human plasma protein binding ([3]; n = 1, listed as 6b’): 3.0 % free; CLint Rat Hep. (intrinsic clearance in rat hepatocytes) ([5]; listed as 6b’): 10.3 μL/min/10^6
2 | CCOC(=O)C(F)(F)c1cccc(-c2ncc3c(n2)n(CC(=O)N(CC)Cc2ccccc2)c(=O)n3C)c1 [6f] | 12 (≈ 6.28 µg/mL) | 852 (≈ 446 µg/mL) | -0.4 | 4.3 | 3.3 | > 300 | 4.0 | > 300 | CLint Rat Hep. (intrinsic clearance in rat hepatocytes) ([5]; listed as 6f’): 6.8 μL/min/10^6
3 | CCOC(=O)C1(c2cccc(-c3ncc4c(n3)n(CC(=O)N(CC)Cc3ccccc3)c(=O)n4C)c2)CCC1 [5e] | 17 (≈ 8.97 µg/mL) | > 1000 | 0.7 | 4.4 | 0.4 | > 300 | 5.5 | > 300 | Prot. Bind. (% free), human plasma protein binding ([3]; n = 1, listed as 5e’): 2.0 % free; CLint Rat Hep. (intrinsic clearance in rat hepatocytes) ([5]; listed as 5e’): 15.9 μL/min/10^6
4 | CCN(Cc1ccccc1)C(=O)Cn1c(=O)n(C)c2cnc(-c3cccc(C4(C(=O)OC)CCCC4)c3)nc21 [6e] | 36 (≈ 19 µg/mL) | 864 (≈ 456 µg/mL) | 1.4 | 4.3 | 0.4 | > 300 | < 3.0 | > 300 | Prot. Bind. (% free), human plasma protein binding ([3]; n = 1, listed as 6e’): 0.7 % free; CLint Rat Hep. (intrinsic clearance in rat hepatocytes) ([5]; listed as 6e’): 51.0 μL/min/10^6
5 | CCN(Cc1ccccc1)C(=O)Cn1c(=O)n(C)c2cnc(-c3cccc(C4(C(=O)OCc5ccccc5)CCN(C(=O)OC(C)(C)C)CC4)c3)nc21 [6k] | 6 (≈ 4.31 µg/mL) | 806 (≈ 579 µg/mL) | > 3.2 | – | < 0.3 | > 300 | 24.1 | 157 | CLint Rat Hep. (intrinsic clearance in rat hepatocytes) ([5]; listed as 6k’): 18.0 μL/min/10^6
6 | CCOP(=O)(OCC)C(F)(F)c1cccc(-c2ncc3c(n2)n(CC(=O)N(CC)Cc2ccccc2)c(=O)n3C)c1 [6g] | 46 (≈ 27 µg/mL) | > 1000 | -0.8 | – | 2.0 | > 300 | < 3.0 | > 300 | logD [2, 7]: 4.4; Prot. Bind. (% free), human plasma protein binding ([3]; n = 1, listed as 6g’): 3.7 % free; CLint Rat Hep. (intrinsic clearance in rat hepatocytes) ([5]; listed as 6g’): 4.2 μL/min/10^6
7 | CCN(Cc1ccccc1)C(=O)Cn1c(=O)n(C)c2cnc(-c3cccc(C4(C(=O)OC)CCOC4)c3)nc21 (stereo not shown) [6i] | 104 (≈ 55.1 µg/mL) | > 1000 | -0.7 | 2.9 | 7.8 | > 300 | < 3.0 | > 300 | Prot. Bind. (% free), human plasma protein binding ([3]; n = 1, listed as 6i’): 5.9 % free; CLint Rat Hep. (intrinsic clearance in rat hepatocytes) ([5]; listed as 6i’): 12.9 μL/min/10^6
